What all share (experiment): DTP human tumour cell line panel, 48 h
In assay [1] the test system is HCC 2998.
Assay [2] relates to UACC-257.
The subject of assay [3] is T47D.
In assay [4] the test system is DU-145.
Assay [5] relates to KM12.
Assay [6] deals with SF-268.
Assay [7] deals with HOP-92.
Assay [8] relates to SF-295.
The test system of assay [9] is SK-MEL-5.
For assay [10], the system named is BT-549.
Assay [11] deals with HCT-15.
Assay [12] has as its system RPMI-8226.
Assay [13] deals with MDA-N.
In assay [14] the test system is MDA-MB-435.
The test system of assay [15] is HCT-116.
Assay [16] concerns UACC-62.
The test system of assay [17] is SK-MEL-2.
For assay [18], the system named is OVCAR-4.
In assay [19] the test system is SNB-75.

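Test compounds were applied to cells in 96-well plates for 48 hours at 5 doses. GI50 marks 50% less growth.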 Activity calls are given as the source filed them. No stated cut-off is given here; in the data, active = GI50 up to about 1.1 µM and inactive = higher. Bounds are passed on as bounds.

As to `c1ccc2c(c1)C(=Nc1ccc(N=C3c4ccccc4-c4ccccc43)cc1)c1ccccc1-2`, the GI50 in assay [1], in assay [2], in assay [3], in assay [4], in [5] and in assay [6] was > 100 µM (inactive) in each case. The GI50 was > 100 µM (inactive) in assay [7]; > 100 µM (inactive) in [8]; > 100 µM (inactive) in assay [9]; > 100 µM (inactive) in assay [10]; over 100 µM in assay [11]; > 100 µM (inactive) in [12]. Moreover, the GI50 in assay [13], in assay [14], in assay [15], in assay [16], in [17] and in [18] was > 100 µM (inactive) throughout.

On to `COC(c1ccc(C(C)(C)C)cc1)(c1ccc(C(C)(C)C)cc1)c1ccc(C(C)(C)C)cc1`, for which the GI50 in assay [1], in assay [3], in [4], in [19], in assay [5] and in [6] was > 100 µM (inactive) in each case. The GI50 in [8] was > 100 µM (inactive); in assay [9], > 100 µM (inactive); in [10] it was > 100 µM (inactive); in [11], over 100 µM; in assay [12] it was > 100 µM (inactive); in assay [13] it was > 100 µM (inactive). Besides, the GI50 in [14], in assay [15], in [16], in [17] and in assay [18] was > 100 µM (inactive) in each case.

`Cc1ccc(NC(=O)/C(Cc2cc(=O)oc3cc(O)ccc23)=N\NC(C)(C)C)cc1C`: the GI50 in assay [1] was 29.4 µM (inactive); in assay [2], > 100 µM (inactive); in [3], > 100 µM (inactive); in assay [4], > 100 µM (inactive); in [5], > 100 µM (inactive); in assay [6], > 100 µM (inactive). Besides, the GI50 is > 100 µM (inactive) in assay [7]; > 100 µM (inactive) in assay [8]; > 100 µM (inactive) in assay [9]; > 100 µM (inactive) in assay [10]; over 100 µM in assay [11]; > 100 µM (inactive) in [12]. Moreover, the GI50 was > 100 µM (inactive) in [13]; > 100 µM (inactive) in assay [14]; > 100 µM (inactive) in assay [15]; > 100 µM (inactive) in assay [16]; > 100 µM (inactive) in assay [17]; 68.9 µM (inactive) in [18].

`CN(C)/C=C/c1c2c(nc3ccccc13)C(=O)c1ccccc1C2=O`: the GI50 in assay [1] is 1.93 µM (inactive); in [2], 0.498 µM (active); in assay [3] it was 1.41 µM (inactive); in [4], 1.38 µM (inactive); in [5], 1.34 µM (inactive); in [6] it was 1.77 µM (inactive). Moreover, the GI50 was 1.95 µM (inactive) in assay [7]; 0.875 µM (active) in assay [8]; 0.175 µM (active) in assay [9]; 1.77 µM (inactive) in [10]; 0.766 µM in assay [11]; 0.0989 µM (active) in [12]. For the same compound, the GI50 was 0.483 µM (active) in [13]; 0.357 µM (active) in [14]; 0.923 µM (active) in [15]; 0.25 µM (active) in assay [16]; 1.12 µM (active) in assay [17]; 1.58 µM (inactive) in assay [18].

What is called GI50 is the concentration that inhibits growth by half.

Values taken from ChEMBL document CHEMBL1201862, “PubChem BioAssay data set” (2004).
